Measurements published in patent US20100204275A1 (published 2010).
Counter-ions that a name gives are not always drawn.

| melting point | Structure (SMILES) |
| --- | --- |
| 151 to 153 °C | CCC(=O)N(CC1CCNCC1)c1ccc2cc(OCc3ccccc3)ccc2c1.O=C(O)C(F)(F)F |
| 98 to 100 °C | CCC(=O)N(CC1CCNCC1)c1ccccc1 (as salt: trifluoroacetic acid salt) |
| 94 to 96 °C | CCC(=O)N(CC1CCNCC1)c1cccc(Cl)c1 (as salt: salt) |
| 168 to 170 °C | CCC(=O)N(CC1CCNCC1)c1ccc2cc(OC)ccc2c1.O=C(O)C(F)(F)F |

Further lines, the compound ahead of its results:

| Structure (SMILES) | melting point |
| --- | --- |
| CCC(=O)N(CC1CCNCC1)c1ccccn1 (as salt: trifluoroacetic acid salt) | 108 to 110 °C |
| COCC(=O)N(CC1CCNCC1)c1ccc(Cl)c(Cl)c1 (as salt: salt) | 115 to 117 °C |
| CCC(=O)N(CC1CCNCC1)c1ccc(Cl)cn1 (as salt: trifluoroacetic acid salt) | 134 to 136 °C |
| CC(=O)N(CC1CCNCC1)c1ccc(Cl)c(Cl)c1 (as salt: trifluoroacetic acid salt) | 172 to 174 °C |
